pIC50: −log10 of the molar value.

For the first assay, the target named is T1, Xanthine dehydrogenase/oxidase (Bos taurus, UniProt P80457). Kind of assay: Inhibition of bovine xanthine oxidase by spectrophotometry.
T1 sequence (P80457 whole entry): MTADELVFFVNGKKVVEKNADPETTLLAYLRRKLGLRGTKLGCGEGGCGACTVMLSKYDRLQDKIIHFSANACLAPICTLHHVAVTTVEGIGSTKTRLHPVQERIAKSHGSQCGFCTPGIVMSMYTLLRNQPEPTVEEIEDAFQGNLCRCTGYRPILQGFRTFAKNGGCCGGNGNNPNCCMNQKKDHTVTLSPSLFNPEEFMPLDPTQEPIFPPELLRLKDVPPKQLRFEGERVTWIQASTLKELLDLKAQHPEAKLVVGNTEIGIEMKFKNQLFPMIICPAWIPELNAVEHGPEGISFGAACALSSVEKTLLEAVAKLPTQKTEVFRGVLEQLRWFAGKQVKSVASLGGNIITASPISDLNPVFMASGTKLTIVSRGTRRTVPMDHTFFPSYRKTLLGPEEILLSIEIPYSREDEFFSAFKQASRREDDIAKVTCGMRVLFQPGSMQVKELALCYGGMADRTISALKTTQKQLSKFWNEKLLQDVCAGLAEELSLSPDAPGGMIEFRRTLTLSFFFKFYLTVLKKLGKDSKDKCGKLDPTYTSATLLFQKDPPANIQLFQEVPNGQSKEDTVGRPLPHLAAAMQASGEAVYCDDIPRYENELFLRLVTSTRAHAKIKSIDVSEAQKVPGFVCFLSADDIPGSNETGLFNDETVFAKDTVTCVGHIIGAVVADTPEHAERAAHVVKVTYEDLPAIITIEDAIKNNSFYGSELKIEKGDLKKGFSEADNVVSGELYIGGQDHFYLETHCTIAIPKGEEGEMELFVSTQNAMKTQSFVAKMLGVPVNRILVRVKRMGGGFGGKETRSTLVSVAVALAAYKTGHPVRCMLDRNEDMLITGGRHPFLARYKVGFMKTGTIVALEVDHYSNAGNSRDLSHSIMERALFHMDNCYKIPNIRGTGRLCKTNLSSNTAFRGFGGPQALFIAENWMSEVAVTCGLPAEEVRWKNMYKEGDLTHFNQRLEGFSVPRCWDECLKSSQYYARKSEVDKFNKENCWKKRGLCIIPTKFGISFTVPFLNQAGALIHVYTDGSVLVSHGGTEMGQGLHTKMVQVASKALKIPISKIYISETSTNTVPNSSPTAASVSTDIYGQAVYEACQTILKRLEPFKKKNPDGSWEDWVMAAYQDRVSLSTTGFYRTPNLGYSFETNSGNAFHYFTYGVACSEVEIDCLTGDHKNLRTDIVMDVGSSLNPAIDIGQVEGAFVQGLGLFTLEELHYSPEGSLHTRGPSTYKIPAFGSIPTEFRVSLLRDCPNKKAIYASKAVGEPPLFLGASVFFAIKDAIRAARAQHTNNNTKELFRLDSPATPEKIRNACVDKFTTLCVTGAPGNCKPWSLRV
Conditions: not given
`CC(C)(C)c1ccc(COc2ccc(-c3cc(C(=O)O)[n-][o+]3)cc2[N+](=O)[O-])cc1` gave a pIC50 of 4.89.

`N#Cc1cc(-c2cc(C(=O)O)no2)ccc1OCc1ccc(Cl)cc1` gave a negative-log IC50 (pIC50) of 6.20.

In the case of `O=C(O)c1cc(-c2ccc(OCc3ccc(Cl)cc3)c([N+](=O)[O-])c2)on1`, the negative-log IC50 (pIC50) is 5.55.

`CC(C)(C)c1ccc(COc2ccc(-c3cc(C(=O)O)no3)cc2C#N)cc1` gave a negative logarithm of the IC50 (pIC50) of 6.00.

`CC(C)COc1ccc(-c2cc(C(=O)O)no2)cc1[N+](=O)[O-]` had a negative logarithm of the IC50 (pIC50) of 6.00.

For the molecule `O=C(O)c1cc(-c2ccc(OCc3ccccc3)c([N+](=O)[O-])c2)on1`, the pIC50 is 6.01.

Turning to `N#Cc1cc(-c2cc(C(=O)O)no2)ccc1OCc1ccccc1`, the negative logarithm of the IC50 (pIC50) is 6.23.

The next assay has as its target T1, Xanthine dehydrogenase/oxidase. Briefly: Inhibition of bovine xanthine oxidase at 10 ug/ml by spectrophotometry. The following applies: cattle.
Take `Cc1ccc(COc2ccc(-c3cc(C(=O)O)no3)cc2[N+](=O)[O-])cc1`: the inhibition at 10 µg/mL is less than 50%.

In turn, `Cc1ccc(COc2ccc(-c3cc(C(=O)O)no3)cc2C#N)cc1` returned an inhibition at 10 µg/mL of less than 50%.

These data come from ChEMBL document CHEMBL1165871, “Synthesis of some 5-phenylisoxazole-3-carboxylic acid derivatives as potent xanthine oxidase inhibitors” (Eur J Med Chem, 2010).
